Measurements as given in patent publication US20190322676A1, “CERAMIDE GALACTOSYLTRANSFERASE INHIBITORS FOR THE TREATMENT OF DISEASE” (BioMarin Pharmaceutical Inc., priority 2016, published 2019).
Structures can show the parent of a compound that is named as a salt.

Each compound was assayed against T1, human CGT (ceramide galactosyltransferase), CHO/CGT lysate (Homo sapiens, UniProt Q16880) (assay: CGT enzyme assay, RapidFire/MS/MS readout with 0.01% Tween added (Table 1 ranges with two asterisks **)). Conditions: CGT enzymatic assay; range with two asterisks (**): RapidFire/MS/MS method with 0.01% Tween added.
T1 construct: Full-length human CGT cDNA was cloned into the BamH1/Xho1 site of pcDNA3.1 (+); expressed in transfected cells; host or cells: Chinese hamster ovary (CHO) cells; lysate prepared with M-PER
T1 sequence (Q16880 21-541): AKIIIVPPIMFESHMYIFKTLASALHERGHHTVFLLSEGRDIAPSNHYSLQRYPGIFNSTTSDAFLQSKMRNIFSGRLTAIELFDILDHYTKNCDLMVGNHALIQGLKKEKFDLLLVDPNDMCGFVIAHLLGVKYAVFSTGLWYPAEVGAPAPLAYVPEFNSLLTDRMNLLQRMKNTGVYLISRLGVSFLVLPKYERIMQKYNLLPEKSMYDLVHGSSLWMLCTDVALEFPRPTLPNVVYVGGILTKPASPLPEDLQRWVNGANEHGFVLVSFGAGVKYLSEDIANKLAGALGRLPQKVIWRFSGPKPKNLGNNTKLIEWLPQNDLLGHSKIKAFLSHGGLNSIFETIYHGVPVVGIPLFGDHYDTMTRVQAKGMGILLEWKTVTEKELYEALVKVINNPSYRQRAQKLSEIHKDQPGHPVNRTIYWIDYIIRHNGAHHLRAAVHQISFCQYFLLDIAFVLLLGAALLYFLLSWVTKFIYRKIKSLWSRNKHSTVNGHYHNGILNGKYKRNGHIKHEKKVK
Assay type: biochemical
Procedure, shortened: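 IC50s come from variable-slope dose-response fits of internal-standard-normalized C6-NBD-dihydro-galactosylceramide, measured by RapidFire/MS/MS (ESI negative). Reactions: 1 h, 37 °C, human CGT-expressing CHO lysate (4 μg), 0.001–50 μM compound, 10 μM NBD-dihydro-ceramide, 17.5 μM UDP-galactose, 0.5% DMSO, pH 7.2; 0.01% Tween 80 added for ** values.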
Work on CCCOc1cc(C(F)(F)[C@@H](NS(=O)(=O)c2ccc3cc(OC4CCCC4)ccc3c2)C(=O)N2CCC(N)CC2)ccc1Cl [Compound 169-2, (S)—N-(3-(4-aminopiperidin-1-yl)-1-(4-chloro-3-propoxyphenyl)-1,1-difluoro-3-oxopropan-2-yl)-6-(cyclopentyloxy) naphthalene-2-sulfonamide trifluoroacetate] yielded an IC50 of 1 to 10 µM.
In the case of CCCOc1cc(C(F)(F)[C@H](NS(=O)(=O)c2ccc3cc(OC4CCCC4)ccc3c2)C(=O)N2CCC(N)CC2)ccc1Cl [Compound 169-1, (R)—N-(3-(4-aminopiperidin-1-yl)-1-(4-chloro-3-propoxyphenyl)-1,1-difluoro-3-oxopropan-2-yl)-6-(cyclopentyloxy)naphthalene-2-sulfonamide trifluoroacetate], the IC50 is reported as less than 1 µM.
O=C([C@@H](NS(=O)(=O)c1ccc2cc(OC3CCCC3)ccc2c1)C(F)(F)c1ccc(-c2ccc(Cl)cc2)cc1)N1CC[C@H]2CNC[C@H]21 [Compound 192-1, N-((R)-1-(4′-chloro-[1,1′-biphenyl]-4-yl)-1,1-difluoro-3-((3aS,6aS)-hexahydropyrrolo[3,4-b]pyrrol-1(2H)-yl)-3-oxopropan-2-yl)-6-(cyclopentyloxy)naphthalene-2-sulfonamide] gave an IC50 of 1 to 10 µM.
In the case of NC1CCN(C(=O)[C@@H](NS(=O)(=O)c2cc3ccc(OC4CCCC4)cc3s2)C(F)(F)c2ccc(-c3ccc(Cl)cc3)cc2)CC1 [Compound 164-1, (R)—N-(3-(4-aminopiperidin-1-yl)-1-(4′-chloro-[1,1′-biphenyl]-4-yl)-1,1-difluoro-3-oxopropan-2-yl)-6-(cyclopentyloxy)benzo[b]thiophene-2-sulfonamide], the IC50 is reported as 1 to 10 µM.
COc1cc(C(F)(F)[C@H](NS(=O)(=O)c2ccc(OCC3CCCCC3)cc2)C(=O)N2C[C@H]3CNC[C@H]3C2)ccc1-c1ccc(Cl)cc1 [Compound 190-1, N-((R)-1-(4′-chloro-2-methoxy-[1,1′-biphenyl]-4-yl)-1,1-difluoro-3-((3aR,6aS)-hexahydropyrrolo[3,4-c]pyrrol-2(1H)-yl)-3-oxopropan-2-yl)-4-(cyclohexylmethoxy)benzenesulfonamide] gave an IC50 of 1 to 10 µM.
NC(=NO)C1CCN(C(=O)[C@@H](NS(=O)(=O)c2ccc3cc(OC4CCCC4)ccc3c2)C(F)(F)c2ccc(-c3ccc(Cl)cc3)cc2)CC1 [Compound 174-1, (R)-1-(3-(4′-chloro-[1,1′-biphenyl]-4-yl)-2-((6-(cyclopentyloxy)naphthalene)-2-sulfonamido)-3,3-difluoropropanoyl)-N′-hydroxypiperidine-4-carboximidamide] was tested, and the IC50 was 1 to 10 µM.
NC1CCN(C(=O)[C@H](NS(=O)(=O)c2ccc(OCC3CCCCC3)cc2)C(F)(F)c2ccc(-c3ccccc3)cc2)CC1 [Compound 156-2, (S)—N-(1-([1,1′-biphenyl]-4-yl)-3-(4-aminopiperidin-1-yl)-1,1-difluoro-3-oxopropan-2-yl)-4-(cyclohexylmethoxy)benzenesulfonamide trifluoroacetate] gave an IC50 of 30 to 100 µM.
For NC1CCN(C(=O)[C@@H](NS(=O)(=O)c2ccc(COC3CCCCC3)s2)C(F)(F)c2ccc(-c3ccc(Cl)cc3)cc2)CC1 [Compound 165-2, (R)—N-(3-(4-aminopiperidin-1-yl)-1-(4′-chloro-[1,1′-biphenyl]-4-yl)-1,1-difluoro-3-oxopropan-2-yl)-5-((cyclohexyloxy)methyl)thiophene-2-sulfonamide trifluoroacetate], the IC50 was 30 to 100 µM.
NC1CCN(C(=O)[C@H](NS(=O)(=O)c2ccc(COC3CCCCC3)s2)C(F)(F)c2ccc(-c3ccc(Cl)cc3)cc2)CC1 [Compound 165-1, (S)—N-(3-(4-aminopiperidin-1-yl)-1-(4′-chloro-[1,1′-biphenyl]-4-yl)-1,1-difluoro-3-oxopropan-2-yl)-5-((cyclohexyloxy)methyl)thiophene-2-sulfonamide trifluoroacetate] showed an IC50 of 30 to 100 µM.
COc1cc(C(F)(F)[C@@H](NS(=O)(=O)c2ccc3cc(OC4CCCC4)ccc3c2)C(=O)N2C[C@H]3CNC[C@H]3C2)ccc1-c1ccc(Cl)cc1 [Compound 197-2, N-((S)-1-(4′-chloro-2-methoxy-[1,1′-biphenyl]-4-yl)-1,1-difluoro-3-((3aR,6aS)-hexahydropyrrolo[3,4-c]pyrrol-2(1H)-yl)-3-oxopropan-2-yl)-6-(cyclopentyloxy)naphthalene-2-sulfonamide] was tested, and the IC50 was 10 to 30 µM.
N[C@@H]1CCN(C(=O)[C@H](NS(=O)(=O)c2ccc3cc(OC4CCCC4)ccc3c2)C(F)(F)c2ccc(-c3ccc(Cl)cc3)cc2)C[C@H]1F [Compound 178-3, N—((S)-3-((3R,4R)-4-amino-3-fluoropiperidin-1-yl)-1-(4′-chloro-[1,1′-biphenyl]-4-yl)-1,1-difluoro-3-oxopropan-2-yl)-6-(cyclopentyloxy)naphthalene-2-sulfonamide] was tested, and the IC50 was 30 to 100 µM.
In the case of NC(=O)C1CCN(C(=O)[C@@H](NS(=O)(=O)c2ccc3cc(OC4CCCC4)ccc3c2)C(F)(F)c2ccc(-c3ccc(Cl)cc3)cc2)CC1 [Compound 173-1, (R)-1-(3-(4′-chloro-[1,1′-biphenyl]-4-yl)-2-((6-(cyclopentyloxy)naphthalene)-2-sulfonamido)-3,3-difluoropropanoyl)piperidine-4-carboxamide], the IC50 is reported as 1 to 10 µM.
NC1CCN(C(=O)[C@@H](NS(=O)(=O)c2ccc3cc(OC4CCCC4)ccc3c2)C(F)(F)c2ccc(Cl)c(OC3CC3)c2)CC1 [Compound 168-1, (R)—N-(3-(4-aminopiperidin-1-yl)-1-(4-chloro-3-cyclopropoxyphenyl)-1,1-difluoro-3-oxopropan-2-yl)-6-(cyclopentyloxy)naphthalene-2-sulfonamide trifluoroacetate] gave an IC50 of 1 to 10 µM.
Compound NC1CCN(C(=O)[C@H](NS(=O)(=O)c2ccc(OCC3CCCCC3)cc2)C(F)(F)c2cccc(-c3ccc(Cl)cc3)c2)CC1 [Compound 181-2, (S)—N-(3-(4-aminopiperidin-1-yl)-1-(4′-chloro-[1,1′-biphenyl]-3-yl)-1,1-difluoro-3-oxopropan-2-yl)-4-(cyclohexylmethoxy) benzenesulfonamide trifluoroacetate] has an IC50 of 1 to 10 µM.
NC1CCN(C(=O)[C@@H](NS(=O)(=O)c2ccc(OCC3CCCCC3)cc2)C(F)(F)c2ccc(-c3ccc(Cl)cc3)cn2)CC1 [Compound 163-1, (R)—N-(3-(4-aminopiperidin-1-yl)-1-(5-(4-chlorophenyl)pyridin-2-yl)-1,1-difluoro-3-oxopropan-2-yl)-4-(cyclohexylmethoxy)benzenesulfonamide] was tested, and the IC50 was 1 to 10 µM.
NC1CC2CCC(C1)N2C(=O)[C@@H](NS(=O)(=O)c1ccc2cc(OC3CC3)ccc2c1)C(F)(F)c1ccc(Br)cc1 (stereo partly drawn) [Compound 177-1, N-((2R)-3-(3-amino-8-azabicyclo[3.2.1]octan-8-yl)-1-(4-bromophenyl)-1,1-difluoro-3-oxopropan-2-yl)-6-cyclopropoxynaphthalene-2-sulfonamide trifluoroacetate] showed an IC50 of 1 to 10 µM.
N[C@H]1CCN(C(=O)[C@H](NS(=O)(=O)c2ccc(OCC3CCCCC3)cc2)C(F)(F)c2ccc(-c3ccc(Cl)cc3)cc2)C1 [Compound 171-2, N—((S)-3-((S)-3-aminopyrrolidin-1-yl)-1-(4′-chloro-[1,1′-biphenyl]-4-yl)-1,1-difluoro-3-oxopropan-2-yl)-4-(cyclohexylmethoxy) benzenesulfonamide trifluoroacetate] gave an IC50 of 30 to 100 µM.
With CN(CCCN)C(=O)[C@@H](NS(=O)(=O)c1ccc2cc(OC3CCCC3)ccc2c1)C(F)(F)c1ccc(-c2ccc(Cl)cc2)cc1 [Compound 157-1, (R)—N-(3-aminopropyl)-3-(4′-chloro-[1,1′-biphenyl]-4-yl)-2-((6-(cyclopentyloxy)naphthalene)-2-sulfonamido)-3,3-difluoro-N-methylpropanamide] the IC50 was 1 to 10 µM.
Compound O=C([C@@H](NS(=O)(=O)c1ccc2cc(OC3CCCC3)ccc2c1)C(F)(F)c1ccc(-c2ccc(Cl)cc2)cc1)N1CCNC2(CC2)C1 [Compound 188-1, (R)-N-(1-(4′-chloro-[1,1′-biphenyl]-4-yl)-1,1-difluoro-3-oxo-3-(4,7-diazaspiro[2.5]octan-7-yl)propan-2-yl)-6-(cyclopentyloxy)naphthalene-2-sulfonamide] has an IC50 of 1 to 10 µM.
Work on NC1CCN(C(=O)[C@@H](NC(=O)[C@H](O)c2ccc3cc(OC4CCCC4)ccc3c2)C(F)(F)c2ccc(-c3ccc(Cl)cc3)cc2)CC1 [Compound 159-1, (R)—N—((R)-3-(4-aminopiperidin-1-yl)-1-(4′-chloro-[1,1′-biphenyl]-4-yl)-1,1-difluoro-3-oxopropan-2-yl)-2-(6-(cyclopentyloxy)naphthalen-2-yl)-2-hydroxyacetamide trifluoroacetate] yielded an IC50 of 1 to 10 µM.

Same assay, conditions: CGT enzyme assay, RapidFire/MS/MS method with 0.01% Tween added (range with two asterisks **)
Compound COc1cc(C(F)(F)[C@@H](NS(=O)(=O)c2ccc3cc(OC4CCCC4)ccc3c2)C(=O)N2CCC(N)CC2)ccc1-c1ccc(Cl)cc1 [Compound 144-2, (S)—N-(3-(4-aminopiperidin-1-yl)-1-(4′-chloro-2-methoxy-[1,1′-biphenyl]-4-yl)-1,1-difluoro-3-oxopropan-2-yl)-6-(cyclopentyloxy) naphthalene-2-sulfonamide trifluoroacetate] has an IC50 of 1 to 10 µM.
